Columns and labels:
MC38 tumor cells = test: MC38 tumor cell viability in vitro; assay type: cell-based; conditions: direct exposure in vitro, 72 hours
Protocol: (§1) FIG. 17A-17B. […] (a) MC38 tumor cells were treated with the indicated doses of inosine in vitro for 72 hours. Cell death and survival was assessed through flow cytometry. (b) MC38 tumor cells expressing full length ovalbumin (MC38-OVA) were treated with the indicated doses of inosine in vitro for 72 hours. In parallel, OVA-specific naïve CD4 and CD8 T cells from spleens of OT-II and OT-I mice, respectively, were activated with anti-CD3/anti-CD28 beads and rmIL-2 (20 IU/ml) for 72 hours. Inosine was then washed away from conditioned MC38-OVA cells and fresh medium together with activated T cells were added (100,000 MC38-OVA cells+25,000 CD4 cells+25,000 CD8 cells). 72 hours later, cell death and survival of MC38-OVA cells was assessed through flow cytometry. Grey and black dash-dotted lines indicate MC38-OVA cell viability and death when co-cultured with naïve OVA-specific CD4 and CD8 T cells. Data are mean±SEM and pooled from two individual experiments. n=6 biological replicates/condition. #, & P<0.05, **, P<0.01; (**=0.0001 vs 10 mM, #0.001 vs 10 mM and & 1 vs 10 mM)

MC38 = MC38 tumors in SPF mice, inosine or B. pseudolongum + anti-CTLA-4; assay type: in vivo; conditions: oral gavage
Protocol: FIG. 35A-35H. Inosine and live B. pseudolongum improve anti-CTLA-4 therapy efficacy in moderately diverse and complex microbiomes. A) Schematic overview of experimental setup to assess the effect of inosine on anti-tumor immunity in gnotobiotic mice (Oligo-MM12) stably colonized with 12 bacterial species. Upon palpable tumors, Oligo-MM12 colonized mice were treated with 100 μg anti-CTLA-4 i.p. or Isotype antibody (5 times every 72 hours). In addition, inosine (300 mg/KG/BW) or PBS was given daily orally through gavage. (B) Pictures of tumors and (C) tumor weight are shown at day 20. scale bars: 1 cm. (D) Quantification of intratumoral IFN-γ+ cells amongst CD8+ or CD4+ T cells are shown. (E) Schematic overview of experimental setup to assess the effect of inosine and B. pseudolongum on anti-tumor immunity in SPF mice. Following MC38 injection some mice received antibiotics (ABX), specifically Ampicillin 1 mg/ml, Colistin 1 mg/ml and Streptomycin 5 mg/ml for 7 days in the drinking water. Upon palpable tumors, antibiotics were removed and 100 μg anti-CTLA-4 (5 times every 72 hours) started. Mice concomitantly received either PBS, inosine (300 mg/KG/BW daily), B. pseudolongum or heat inactivated (H.i.) B. pseudolongum orally through gavage (5 times every 72 hours). […] (H) Quantification of intratumoral IFN-γ+ cells amongst CD8+ or CD4+ cells are shown. […]

MC38-OVA cells = test: T cell-mediated killing of inosine-pretreated MC38-OVA cells; assay type: cell-based; conditions: pretreatment of tumor cells prior to co-culture with activated tumor-specific T cells
Protocol: as §1

For `OC[C@H]1O[C@@H](n2cnc3c(O)ncnc32)[C@H](O)[C@@H]1O` [inosine], the tumor cell viability (MC38 tumor cells) was “did not exert any effects on tumor cell viability”, the tumor cell viability (MC38 tumor cells; listed as Inosine) was “does not directly impact tumor cell viability” and the “efficacy of anti-CTLA-4” value (MC38) was “could promote the efficacy of anti-CTLA-4”. The “T cell-mediated killing of tumor cells” value (MC38-OVA cells) was “did not promote or inhibit T cell-mediated killing of tumor cells”.

Source: patent US20240181049A1, “HARNESSING THE POWER OF MICROBIOTA AND METABOLITES FOR THE TREATMENT OF CANCER” (UTI LIMITED PARTNERSHIP, priority 2019, published 2024)
